From PMC10939774 (Antiviral research, 2024)

How the values were obtained:
HepG2.2.15 cells [1] = assay: HBsAg production from HepG2.2.15 cells; format: cell-based, hepatitis B virus; conditions: 10 μM, 7 days of culture
HBV genotype C = assay: HBV infection of human primary hepatocytes; format: cell-based, hepatitis B virus; conditions: 10 μM virus treatment; day 12 after infection; P < 0.0001 vs Ctn
HepG2.2.15 cells [2] = conditions: 10 μM, 7 days of culture
HepG2-NTCP cells = assay: Cell viability by WST-8 assay in HepG2-NTCP cells; conditions: 10 μM, 7 days, absorbance 450 nm
HepG2.2.15-derived HBV = HepG2.2.15-derived HBV infection of HepG2-NTCP cells, HBsAg in culture medium; format: cell-based, hepatitis B virus; conditions: 10 μM, HBsAg on Day 12 post-infection
HBV = conditions: patients; ref Bogomolov et al., 2016; cited from earlier work

Row | Molecule | HBsAg level in the culture medium of HepG2.2.15 cells compared to Ctn-treated cells (HepG2.2.15 cells [1]) | HBV DNA in the culture medium of HBV-infected human primary hepatocytes (HBV genotype C) | HBeAg level in HBV-infected human primary hepatocytes (HBV genotype C) | Viability of treated HepG2.2.15 cells (HepG2.2.15 cells [2]) [%] | Cell viability, percentage of Ctn-treated cells (HepG2-NTCP cells) [%] | Effect on HBsAg level of pre-treatment of cells only (HepG2.2.15-derived HBV; HepG2-NTCP cells treated 24 hours before infection) | Effect on HBsAg level of post-treatment of infected cells only (HepG2.2.15-derived HBV; during 11 days of culture after washing) | Improvement in clinical conditions and HBV DNA and HBsAg levels (HBV)
1 | CC[C@H](C)[C@H](NC(=O)[C@H](CCCCN)NC(=O)[C@H](CCC(=O)O)NC(=O)[C@H](CCCCN)NC(=O)[C@H](CO)NC(=O)[C@H](CCCCN)NC(=O)[C@H](CCCNC(=N)N)NC(=O)[C@H](Cc1ccccc1)NC(=O)[C@H](Cc1ccccc1)NC(=O)[C@H](CC(=O)O)NC(=O)CNC(=O)[C@H](CC(C)C)NC(=O)[C@@H](N)CC(C)C)C(=O)NCC(=O)N[C@@H](CCCCN)C(=O)N[C@@H](CCC(=O)O)C(=O)N[C@@H](Cc1ccccc1)C(=O)N[C@@H](CCCCN)C(=O)N[C@@H](CCCNC(=N)N)C(=O)N[C@H](C(=O)N[C@H](C(=O)N[C@@H](CCC(N)=O)C(=O)N[C@@H](CCCNC(=N)N)C(=O)N[C@H](C(=O)N[C@@H](CCCCN)C(=O)N[C@@H](CC(=O)O)C(=O)N[C@@H](Cc1ccccc1)C(=O)N[C@@H](CC(C)C)C(=O)N[C@@H](CCCNC(=N)N)C(=O)N[C@@H](CC(N)=O)C(=O)N[C@@H](CC(C)C)C(=O)N[C@H](C(=O)N1CCC[C@H]1C(=O)N[C@@H](CCCNC(=N)N)C(=O)N[C@H](C(=O)N[C@@H](CCC(=O)O)C(=O)N[C@@H](CO)C(=O)O)[C@@H](C)O)C(C)C)[C@@H](C)CC)C(C)C)[C@@H](C)CC [LL-37] | comparable | significant reductions | significant reductions | 88.6 | 77.6 ± 6.9 | minimal | minimal | –
2 | myrcludex-B | – | – | – | – | – | – | – | limited improvement
